Source: patent publication US6515015B1, “Antidiabetic agents based on aryl and heteroarylacetic acids” (Merck & Co. Inc., priority 1996, dated 2003)

Biological target: T1, Human PPARγ2 (Homo sapiens, UniProt P37231)
T1 construct: The full length human cDNA for PPARγ2 and PPARδ were subcloned into the PGEX-2T and PGEX-KT; made in house; host or cells: E. coli (pGEX-2T vector)
T1 sequence (P37231 1-505): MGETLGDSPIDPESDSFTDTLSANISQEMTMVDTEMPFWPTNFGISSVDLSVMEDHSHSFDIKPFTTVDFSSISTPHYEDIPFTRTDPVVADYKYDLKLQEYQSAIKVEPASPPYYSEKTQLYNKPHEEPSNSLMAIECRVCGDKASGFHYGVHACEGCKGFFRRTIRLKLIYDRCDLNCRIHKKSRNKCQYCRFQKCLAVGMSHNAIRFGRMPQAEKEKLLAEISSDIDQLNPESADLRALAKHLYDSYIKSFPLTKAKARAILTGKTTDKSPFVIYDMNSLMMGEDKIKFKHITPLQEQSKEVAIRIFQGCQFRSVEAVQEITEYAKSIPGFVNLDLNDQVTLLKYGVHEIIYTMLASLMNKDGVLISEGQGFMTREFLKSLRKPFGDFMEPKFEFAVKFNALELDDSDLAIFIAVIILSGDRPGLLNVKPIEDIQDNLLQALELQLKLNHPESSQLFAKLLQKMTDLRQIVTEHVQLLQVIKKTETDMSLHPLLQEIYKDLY
Assay: [3H]AD-5075 displacement assay for PPARγ2
Assay type: binding
Settings: gst-fusion human PPARγ2, charcoal separation, ~16 h at 4° C.
Description: Compounds of the instant invention which are useful for the above discussed treatments can be identified and/or characterized by employing the PPAR δ, and γ binding assays. The assays are useful in predicting or quantitating in vivo effects having to do with the control or modulation of glucose, free fatty acid, triglyceride, insulin or cholesterol. To evaluate IC50 or EC50, values the compounds were titrated in the appropriate assay using different concentrations of the compound to be tested. To obtain the appropriate values (%Inhibition-IC50, or %Activation-EC50), the data resulting from the assays were then analyzed by determining the best fit of a 4 parameter function to the data using the Levenberg-Marquardt non-linear fitting algorithm in Kaleidagraph (Synergy Software, Reading, Pa.). The human nuclear receptor cDNA for PPARδ (hPPARδ) has been cloned from a human osteosarcoma cell cDNA library and is fully described in A. Schmidt et al., Molecular Endocrinology, 6:1634-1641 (1992), herein incorporated by reference in its entirety. See A. Elbrecht et al., Biochem. and Biophy. Res. Comm. 224:431-437 (1996) and T. Sher et al., Biochem. 32:5598-5604 (1993) for a description of the human nuclear receptor gene PPARγ and α.
Human PPARγ2 and PPARδ, independently, were prepared as gst-fusion proteins in E. coli. […]

Question: For `Cc1oc(-c2ccccc2)nc1C(O)COc1ccc(CC2SC(=O)NC2=O)cc1` (stereo not shown) [AD-5075], which Kd is on record?
Answer: ~1 nM
